From EP3029024A1, “2-(2-aminophenoxy)-3-chloronaphthalene-1,4-dione compounds having orexin 2 receptor agonist activity” (Ferrer Internacional, S.A., priority 2014, dated 2016)

Biological target: T1, OX2 receptor (Homo sapiens, UniProt O43614)
T1 construct: expressed in transfected cells; host or cells: unnamed cell line stably co-expressing apoaequorin and OX2 receptor, cultured in Ham's F12 with G418 and Zeocin
T1 sequence (O43614 1-444): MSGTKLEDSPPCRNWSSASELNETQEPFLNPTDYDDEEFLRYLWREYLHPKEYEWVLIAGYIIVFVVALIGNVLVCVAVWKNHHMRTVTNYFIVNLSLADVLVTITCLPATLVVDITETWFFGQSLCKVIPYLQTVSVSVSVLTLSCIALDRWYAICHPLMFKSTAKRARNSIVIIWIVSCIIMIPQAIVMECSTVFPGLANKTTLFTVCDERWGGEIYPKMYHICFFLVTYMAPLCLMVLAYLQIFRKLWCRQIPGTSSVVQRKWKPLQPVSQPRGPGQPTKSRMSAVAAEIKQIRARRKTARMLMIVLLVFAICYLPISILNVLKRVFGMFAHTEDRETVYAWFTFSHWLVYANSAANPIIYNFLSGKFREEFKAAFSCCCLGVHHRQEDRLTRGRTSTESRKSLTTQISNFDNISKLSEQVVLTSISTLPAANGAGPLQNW
Test: Functional assay for in vitro evaluation of OX2 receptor agonist activity (aequorin light emission, increase in intracellular calcium)
Format: cell-based
Details: OX2R Agonism, Table 1; cell line co-expressing apoaequorin and OX2 receptor; related to the maximum effect induced by the orexin peptide
From the text: The method of choice for the in vitro evaluation of OX2 receptor agonists is the measure of the increase in intracellular calcium induced by the activation of the receptor. OX2 receptor is stably expressed in a cell line co-expressing apoaequorin, a photoprotein which needs a hydrophobic prosthetic group, coelenterazine, to be converted to aequorin, the active enzyme. After calcium binding, aequorin oxidizes coelenterazine to coelenteramide with the production of CO2 and emission of light. The measurement of light emission after the addition of agonists reflects its ability to activate the receptor.
Cell line co-expressing apoaequorin and OX2 receptor were cultured as a monolayer at 37°C and 5% CO2 in complete Ham's F12 medium supplemented with FBS 10%, penicillin (100 IU/ml)-streptomycin (100 µg/ml), Geneticin (G418, 400 µg/ml) and Zeocin (250 µg/ml). Before starting the experiment, cells were incubated with a medium without antibiotics for 18 hours. After this incubation, the cells were detached from the culture plates and they were resuspended in DMEM-F12/0.1% BSA at a final concentration of 5x10^6 cells/ml. Cells were then incubated with 5 µM of coelenterazine at room temperature on a vertical rotating wheel for at least 3 hours. Following incubation with coelenterazine cells were diluted 1:10 with DMEM-F12/0.1% BSA and incubated in magnetic agitation for 1 hour.
Dose-response curves were performed for each compound. 50 µl of pre-loaded cells were injected over test compounds in a 96 wells plate. Results were expressed as the concentration of the compound where 50% of its maximal effect is observed (EC50), related to the maximum effect induced by the orexin peptide on the receptor. OX2R Agonism

In order of falling EC50:
1. Cc1cc(C)c(OC2=C(Cl)C(=O)c3ccccc3C2=O)c(N)c1C [Example 9, 2-(2-amino-3,4,6-trimethylphenoxy)-3-chloronaphthalene-1,4-dione]  130 nM
2. Cc1c(Cl)ccc(OC2=C(Cl)C(=O)c3ccccc3C2=O)c1N [Example 3, 2-(2-amino-4-chloro-3-methylphenoxy)-3-chloronaphthalene-1,4-dione]  110 nM
3. Cc1cc(Br)cc(N)c1OC1=C(Cl)C(=O)c2ccccc2C1=O [Example 6, 2-(2-amino-4-bromo-6-methylphenoxy)-3-chloronaphthalene-1,4-dione]  90 nM
4. Cc1cc(Cl)cc(N)c1OC1=C(Cl)C(=O)c2ccccc2C1=O [Example 5, 2-(2-amino-4-chloro-6-methylphenoxy)-3-chloronaphthalene-1,4-dione]  80 nM
5. Cc1cc(C)c(N)c(OC2=C(Cl)C(=O)c3ccccc3C2=O)c1 [Example 4, 2-(2-amino-3,5-dimethylphenoxy)-3-chloronaphthalene-1,4-dione]  60 nM
6. Cc1cc(C)c(N)c(OC2=C(Cl)C(=O)c3ccccc3C2=O)c1C [Example 8, 2-(2-amino-3,5,6-trimethylphenoxy)-3-chloronaphthalene-1,4-dione]  58 nM
7. COc1ccc(N)c(OC2=C(Cl)C(=O)c3ccccc3C2=O)c1Cl [Example 2, 2-(6-amino-2-chloro-3-methoxyphenoxy)-3-chloronaphthalene-1,4-dione]  50 nM
8. Cc1ccc(OC2=C(Cl)C(=O)c3ccccc3C2=O)c(N)c1C [Example 7, 2-(2-amino-3,4-dimethylphenoxy)-3-chloronaphthalene-1,4-dione]  50 nM
9. COc1ccc(N)c(OC2=C(Cl)C(=O)c3ccccc3C2=O)c1C [Example 1, 2-(6-amino-3-methoxy-2-methylphenoxy)-3-chloronaphthalene-1,4-dione]  28 nM

Same assay, conditions: OX2R Agonism, Table 2, comparative examples (compounds described in PCT/EP2014/062349); same experimental methodology

In order of rising EC50:
1. Cc1ccc(C)c(OC2=C(Cl)C(=O)c3ccccc3C2=O)c1N [Example C12]  150 nM
2. Cc1ccc(OC2=C(Cl)C(=O)c3ccccc3C2=O)c(N)c1 [Example C2]  242 nM
3. Nc1ccc(F)cc1OC1=C(Cl)C(=O)c2ccccc2C1=O [Example C9]  390 nM
4. Nc1cc(Cl)cc(Cl)c1OC1=C(Cl)C(=O)c2ccccc2C1=O [Example C11]  390 nM
5. Nc1ccccc1OC1=C(Cl)C(=O)c2ccccc2C1=O [Example C1]  516 nM
6. Nc1cc(F)ccc1OC1=C(Cl)C(=O)c2ccccc2C1=O [Example C5]  578 nM
7. Cc1cc(N)c(OC2=C(Cl)C(=O)c3ccccc3C2=O)cc1C [Example C10]  670 nM
8. Nc1cc(C(F)(F)F)ccc1OC1=C(Cl)C(=O)c2ccccc2C1=O [Example C8]  700 nM
9. Nc1cc(Cl)ccc1OC1=C(Cl)C(=O)c2ccccc2C1=O [Example C3]  737 nM
10. Nc1ccc(Cl)cc1OC1=C(Cl)C(=O)c2ccccc2C1=O [Example C4]  747 nM
11. COC(=O)c1ccc(OC2=C(Cl)C(=O)c3ccccc3C2=O)c(N)c1 [Example C6]  4060 nM
12. CC(=O)c1ccc(OC2=C(Cl)C(=O)c3ccccc3C2=O)c(N)c1 [Example C7]  4370 nM
